Results reported in patent US8906909B2 (Curis, Inc., priority 2009, dated 2014).
pIC50: −log10 of the molar value.

Columns and labels:
[1] = tested on: HDACs (HeLa cell nuclear extracts); assay: HDAC enzymatic activity, Biomol Color de Lys system; format: biochemical
Method: (e) An In Vitro Assay which Determines the Ability of a Test Compound to Inhibit HDAC Enzymatic Activity.
HDAC inhibitory activity was assessed using the Biomol Color de Lys system (AK-500, Biomol, Plymouth Meeting, Pa.). Briefly, HeLa cell nuclear extracts were used as a source of HDACs. Different concentrations of test compounds were serially diluted in dimethylsulphoxide (DMSO) and added to HeLa cell nuclear extracts in the presence of a colorimetric artificial substrate. Final assay condition contained 50 mM Tris/Cl, pH 8.0, 137 mM NaCl, 2.7 mM KCl and 1 mM MgCl2. Reactions were carried in room temperature (25° C.) for 1 hour before addition of developer for termination. Relative enzyme activity was measured in the WALLAC Victor II 1420 microplate reader as floorescence intensity (excitation: 350-380 nm; emission: 440-460 nm). Data were analyzed using GraphPad Prism (v4.0a) with a sigmoidal dose response curve fitting for IC50 calculation.

| SMILES | pIC50 [1] | melting point |
| --- | --- | --- |
| CN(Cc1cc2nc(-c3cccc4[nH]ccc34)nc(N3CCOCC3)c2s1)c1ncc(C(=O)NO)cn1 [Compound 176, 2-(((2-(1H-indol-4-yl)-4-morpholinothieno[3,2-d]pyrimidin-6-yl)methyl)(methyl)amino)-N-hydroxypyrimidine-5-carboxamide] | > 7.00 | 200 to 212 °C |
| CCc1ncc(-c2nc(N3CCOCC3)c3sc(CN(C)c4ncc(C(=O)NO)cn4)cc3n2)cn1 [Compound 121, 2-(((2-(2-ethylpyrimidin-5-yl)-4-morpholinothieno[3,2-d]pyrimidin-6-yl)methyl)(methyl)amino)-N-hydroxypyrimidine-5-carboxamide] | > 7.00 | 153 to 156 °C |
| CN(Cc1cc2nc(-c3ccc(Cl)cc3)nc(N3CCOCC3)c2s1)c1ncc(C(=O)NO)cn1 [Compound 147, 2-(((2-(4-chlorophenyl)-4-morpholinothieno[3,2-d]pyrimidin-6-yl)methyl)(methyl)amino)-N-hydroxypyrimidine-5-carboxamide] | > 7.00 | 153 °C |
| O=C(CCCCCCNCc1cc2nc(-c3cccc4[nH]ncc34)nc(N3CCOCC3)c2s1)NO [Compound 44, 7-((2-(1H-indazol-4-yl)-4-morpholinothieno[3,2-d]pyrimidin-6-yl)methylamino)-N-hydroxyheptanamide] | 6.00 to 7.00 | 188 to 190 °C |
| CN(Cc1cc2nc(-c3cccc4[nH]ncc34)nc(N3CCOCC3)c2s1)c1ccc(C(=O)NO)cc1 [Compound 79] | > 7.00 | – |
| Cc1ncc(-c2nc(N3CCOCC3)c3sc(CN(CCO)c4ncc(C(=O)NO)cn4)cc3n2)s1 [Compound 312] | > 7.00 | – |
| COc1ccc(-c2nc(N3CCOCC3)c3sc(Nc4ncc(C(=O)NO)cn4)cc3n2)cn1 [Compound 253] | 6.00 to 7.00 | – |
| CC1COCC(C)N1c1nc(-c2cccc3[nH]ncc23)nc2cc(CN(C)c3ncc(C(=O)NO)cn3)sc12 (stereo not drawn) [Compound 66] | > 7.00 | – |
| CN(Cc1cc2nc(-c3cccc4[nH]ncc34)nc(NCCO)c2s1)c1ncc(C(=O)NO)cn1 [Compound 161] | > 7.00 | – |
| CNc1ccc(-c2nc(N3CCOCC3)c3sc(CNCc4nc5cc(/C=C/C(=O)NO)ccc5n4C)cc3n2)cn1 [Compound 328] | 6.00 to 7.00 | – |
| COc1ncc(-c2nc(N3CCOCC3)c3sc(NS(=O)(=O)c4ccc(/C=C/C(=O)NO)cc4)cc3n2)cn1 [Compound 219] | > 7.00 | – |
| CN(Cc1cc2nc(-c3ccc4[nH]ccc4c3)nc(N3CCOCC3)c2s1)c1ncc(C(=O)NO)cn1 [Compound 192] | > 7.00 | – |
| CN(Cc1cc2nc(-c3c[nH]c4ccccc34)nc(N3CCOCC3)c2s1)c1ncc(C(=O)NO)cn1 [Compound 184] | > 7.00 | – |
| O=C(NO)c1cnc(NCc2cc3cc(-c4cccc5[nH]ncc45)nc(N4CCOCC4)c3s2)nc1 [Compound 73] | > 7.00 | – |
| CC(c1cc2nc(-c3ccc(N)cc3)nc(N3CCOCC3)c2s1)N(C)c1ncc(C(=O)NO)cn1 (stereo not drawn) [Compound 214] | > 7.00 | – |
| CN(Cc1cc2nc(-c3cccc4[nH]ncc34)nc(N(CCO)CCO)c2s1)c1ncc(C(=O)NO)cn1 [Compound 162] | > 7.00 | – |
| COc1cccc(Nc2nc(-c3cccc4[nH]ncc34)nc3cc(CN(C)c4ncc(C(=O)NO)cn4)sc23)c1 [Compound 166] | > 7.00 | – |
| Nc1ccc(-c2nc(N3CCOCC3)c3sc(S(=O)(=O)NCC4CCN(c5ncc(C(=O)NO)cn5)CC4)cc3n2)cc1 [Compound 309] | 6.00 to 7.00 | – |
| CN(Cc1cc2nc(-c3ccc4c(c3)NC(=O)CO4)nc(N3CCOCC3)c2s1)c1ncc(C(=O)NO)cn1 [Compound 183] | > 7.00 | – |

| SMILES | pIC50 [1] | melting point |
| --- | --- | --- |
| CNc1ccc(-c2nc(N3CCOCC3)c3sc(N(C)c4ncc(C(=O)NO)cn4)cc3n2)cn1 [Compound 243] | 6.00 to 7.00 | – |
| CN(Cc1cc2nc(-c3cccc(S(=O)(=O)CCO)c3)nc(N3CCOCC3)c2s1)c1ncc(C(=O)NO)cn1 [Compound 291] | > 7.00 | – |
| CCCc1nc2cc(/C=C/C(=O)NO)ccc2n1CCNCc1cc2nc(-c3ccc(NC)nc3)nc(N3CCOCC3)c2s1 [Compound 323] | 6.00 to 7.00 | – |
| CN(Cc1cc2nc(-c3cccc4[nH]c(=O)sc34)nc(N3CCOCC3)c2s1)c1ncc(C(=O)NO)cn1 [Compound 317] | > 7.00 | – |
| CN(Cc1cc2nc(-c3cccc4[nH]ncc34)nc(N3CCCCC3)c2s1)c1ncc(C(=O)NO)cn1 [Compound 67] | > 7.00 | – |
| CN(Cc1cc2nc(-c3ccc(N)cc3)nc(N3CCOCC3)c2s1)Cc1nc2cc(/C=C/C(=O)NO)ccc2n1C [Compound 327] | 6.00 to 7.00 | – |
| CN(C)c1nc(-c2cccc3[nH]ncc23)nc2cc(CN(C)c3ncc(C(=O)NO)cn3)sc12 [Compound 159] | > 7.00 | – |
| COc1ccc(-c2nc(N3CCOCC3)c3sc(CN(C)c4ncc(C(=O)NO)cn4)cc3n2)cc1 [Compound 131, N-hydroxy-2-(((2-(4-methoxyphenyl)-4-morpholinothieno[3,2-d]pyrimidin-6-yl)methyl)(methyl)amino)pyrimidine-5-carboxamide] | – | 247 °C (dec.) |
| CN(Cc1cc2nc(-c3ccc4c(c3)CCN4)nc(N3CCOCC3)c2s1)c1ncc(C(=O)NO)cn1 [Compound 193] | > 7.00 | – |
| COc1ncc(-c2nc(N3CCOCC3)c3sc(NS(=O)(=O)c4cccc(/C=C/C(=O)NO)c4)cc3n2)cn1 [Compound 220] | > 7.00 | – |
| CCN(CC)c1nc(-c2cccc3[nH]ncc23)nc2cc(CN(C)c3ncc(C(=O)NO)cn3)sc12 [Compound 158] | > 7.00 | – |
| C/C(=N/O)c1ccc(F)c(-c2nc(N3CCOCC3)c3sc(CN(C)c4ncc(C(=O)NO)cn4)cc3n2)c1 [Compound 298] | > 7.00 | – |
| Nc1ccc(-c2nc(N3CCOCC3)c3sc(CN(CCO)c4ncc(C(=O)NO)cn4)cc3n2)cn1 [Compound 235] | > 7.00 | – |
| Nc1ccc(-c2nc(N3CCOCC3)c3sc(CN(CCO)c4ncc(C(=O)NO)cn4)cc3n2)cc1F [Compound 277] | > 7.00 | – |
| Cn1cc(CNc2cc3nc(-c4cccc5[nH]ncc45)nc(N4CCOCC4)c3s2)c2cc(C(=O)NO)ccc21 [Compound 106] | 5.00 to 6.00 | – |
| O=C(/C=C/c1ccc(CNCc2cc3nc(-c4cccc5[nH]ncc45)nc(N4CCOCC4)c3s2)cc1)NO [Compound 204] | 6.00 to 7.00 | – |
| CN(Cc1cc2nc(-c3cccc4[nH]c(=S)[nH]c34)nc(N3CCOCC3)c2s1)c1ncc(C(=O)NO)cn1 [Compound 315] | > 7.00 | – |
| O=C(NO)c1ccc(CNCc2cc3nc(-c4cccc5[nH]ncc45)nc(N4CCOCC4)c3s2)cc1 [Compound 203] | 6.00 to 7.00 | – |
| Cn1c(CNCc2cc3nc(-c4ccc(N)cc4)nc(N4CCOCC4)c3s2)nc2cc(/C=C/C(=O)NO)ccc21 [Compound 326] | 6.00 to 7.00 | – |

| SMILES | pIC50 [1] | melting point |
| --- | --- | --- |
| CC(=O)NCc1ccc(-c2nc(N3CCOCC3)c3sc(CN(C)c4ncc(C(=O)NO)cn4)cc3n2)cc1 [Compound 136, 2-(((2-(4-(acetamidomethyl)phenyl)-4-morpholinothieno[3,2-d]pyrimidin-6-yl)methyl)(methyl)amino)-N-hydroxypyrimidine-5-carboxamide] | – | 178 to 180 °C |
| Cn1cc(-c2nc(N3CCOCC3)c3sc(CN(CCO)c4ncc(C(=O)NO)cn4)cc3n2)cn1 [Compound 313] | > 7.00 | – |
| COc1ccc(Nc2nc(-c3cccc4[nH]ncc34)nc3cc(CN(C)c4ncc(C(=O)NO)cn4)sc23)cc1 [Compound 165] | > 7.00 | – |
| O=C(/C=C/c1cccc(S(=O)(=O)Nc2cc3nc(-c4cccc5[nH]ncc45)nc(N4CCOCC4)c3s2)c1)NO [Compound 216] | > 7.00 | – |
| O=C(/C=C/c1cc2nc(-c3cccc4[nH]ncc34)nc(N3CCOCC3)c2s1)NO [Compound 46] | 5.00 to 6.00 | – |
| CC(C)C(=O)Nc1ccc(-c2nc(N3CCOCC3)c3sc(CN(C)c4ncc(C(=O)NO)cn4)cc3n2)cc1 [Compound 286] | > 7.00 | – |
| CN(Cc1cc2nc(-c3ccc(N)cc3)nc(N3CCOCC3)c2s1)c1ccc(C(=O)NO)cc1 [Compound 206] | > 7.00 | – |
| CN(Cc1cc2nc(-c3cccc(NS(C)(=O)=O)c3)nc(N3CCOCC3)c2s1)c1ncc(C(=O)NO)cn1 [Compound 288] | > 7.00 | – |
| COc1ccc(-c2nc(N3CCOCC3)c3sc(CN(CCO)c4ncc(C(=O)NO)cn4)cc3n2)cn1 [Compound 265] | > 7.00 | – |
| CN(Cc1cc2nc(-c3ccc4c(c3)OCCN4)nc(N3CCOCC3)c2s1)c1ncc(C(=O)NO)cn1 [Compound 191] | > 7.00 | – |
| CCCc1nc2cc(/C=C/C(=O)NO)ccc2n1CCN(C)Cc1cc2nc(-c3ccc(N)cc3)nc(N3CCOCC3)c2s1 [Compound 324] | 6.00 to 7.00 | – |
| Nc1ccc(-c2nc(N3CCOCC3)c3sc(CN(CCO)c4ncc(C(=O)NO)cn4)cc3n2)cc1 [Compound 274] | > 7.00 | – |
| O=C(CCCCN1CCN(Cc2cc3nc(-c4cccc5[nH]ncc45)nc(N4CCOCC4)c3s2)CC1)NO [Compound 11, 5-(4-((2-(1H-indazol-4-yl)-4-morpholinothieno[3,2-d]pyrimidin-6-yl)methyl)piperazin-1-yl)-N-hydroxypentanamide] | – | 125 to 127 °C |
| NCCN(Cc1cc2nc(-c3cccc4[nH]ncc34)nc(N3CCOCC3)c2s1)c1ncc(C(=O)NO)cn1 [Compound 94] | > 7.00 | – |
| CC(=O)c1ccc(F)c(-c2nc(N3CCOCC3)c3sc(CN(C)c4ncc(C(=O)NO)cn4)cc3n2)c1 [Compound 301] | > 7.00 | – |
| O=C(CCCCNc1cc2nc(-c3cc(O)ccc3F)nc(N3CCOCC3)c2s1)NO [Compound 231] | > 7.00 | – |
| CN(Cc1cc2nc(-c3cnc(OCc4ccccc4)nc3)nc(N3CCOCC3)c2s1)c1ncc(C(=O)NO)cn1 [Compound 266] | > 7.00 | – |
| CN1CCN(c2nc(-c3cccc4[nH]ncc34)nc3cc(CN(C)c4ncc(C(=O)NO)cn4)sc23)CC1 [Compound 61] | > 7.00 | – |
